From patent EP4635958A1, “PYRIMIDINE-CONTAINING POLYCYCLIC DERIVATIVE INHIBITOR, AND PREPARATION METHOD THEREFOR AND USE THEREOF” (Shanghai Hansoh Biomedical Co., Ltd., priority 2022, dated 2024)
pIC50: −log10 of the molar value.

Experiments:
AsPC-1 = test: Inhibition of proliferation of KRAS G12D mutant tumor cell line AsPC-1 (CellTiter-Glo); format: cell-based; settings: Homo sapiens, ASPC1, about 72 h
Method in brief: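 KRAS G12D-mutant AsPC-1 cells plated overnight at 37 °C/5% CO2, then exposed to serial compound dilutions (DMSO/medium, vehicle control) for about 72 h. Viability read by CellTiter-Glo luminescence; inhibition rate vs concentration fitted by nonlinear regression for IC50.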

[1] = Pharmacokinetic determination in mice (IV and PO, plasma, LCMS/MS); format: in vivo, Balb/c mice; settings: male, Balb/c, mouse, in vivo, iv, 1 mg/kg
Method in brief: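 Male Balb/c mice, fasted overnight (n=3 per route): PO 30 mg/kg in 10% Captisol/50 mM citrate pH 5.0, or IV 1 mg/kg in 5% DMSO/10% Solutol HS15/85% PBS. Orbital blood sampled predose to 24 h; EDTA plasma analysed by LC-MS/MS.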

KRAS G12D-SOS1 = target: T1, KRAS G12D-SOS1 (Homo sapiens, UniProt P01116, G12D); test: Blocking of KRAS G12D-SOS1 protein binding (Cisbio KRAS-G12D/SOS1 Binding Assay Kit, time-resolved fluorescence); settings: KRAS G12D-GTP and SOS1 protein, signal ratio 665nm/620nm; read-out: G12D SOS1 biochemical IC50
T1 construct: purchased Cisbio 63ADK000CB17PEG
Description: • 1. Experimental objective: […] Experimental reagents and instruments The centrifuge (5810R) was purchased from Eppendorf; the pipette was purchased from Eppendorf or Rainin; and the microplate reader was purchased from BioTek (United States) with a model of SynergyH1 multifunctional microplate reader. KRAS-G12D/SOS1 Binding Assay Kit was purchased from Cisbio, with a catalog number of 63ADK000CB17PEG; GTP was purchased from Sigma, with a catalog number of G8877; 384-well plate was purchased from Perkin Elmer, with a catalog number of 6007299. The Diluent buffer in the kit was used to dilute the compound into 10× compound solution of different concentrations, and 2 uL was added to each well of the 384-well plate. Tag2-KRAS G12D protein and GTP were formulated into a mixed solution of 5×KRAS G12D-GTP protein using Diluent buffer, and Tag1-SOS1 protein was formulated into a 5×SOS1 protein solution using Diluent buffer. Each solution was added to the 384-well plate separately at 4 uL per well, and incubated at room temperature for 15 min. A mixed solution of 2× anti-Tag1-Tb^3+ and anti-Tag2-XL665 formulated using detection buffer was added to the 384-well plate at 10 µL per well, and incubated at 4°C in the dark for 3 h.

GP2D = test: Inhibition of proliferation of KRAS G12D mutant tumor cell line GP2D (CellTiter-Glo); settings: Homo sapiens, GP2d, 72 h, read-out: GP2D IC50
KRAS WT = KRAS WT (Homo sapiens, UniProt P01116); test: KRAS WT biochemical assay (Table 1, no method of its own); format: binding; settings: read-out: KRAS WT Biochemical IC50
KRAS WT, sequence (P01116 1-188 isoform P01116-2): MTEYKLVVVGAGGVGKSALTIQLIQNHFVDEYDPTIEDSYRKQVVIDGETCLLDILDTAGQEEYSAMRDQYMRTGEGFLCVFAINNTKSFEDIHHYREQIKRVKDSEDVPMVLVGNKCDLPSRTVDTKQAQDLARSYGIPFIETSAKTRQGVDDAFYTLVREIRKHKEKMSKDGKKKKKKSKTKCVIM

T1 sequence (P01116 1-188 isoform P01116-2 G12D): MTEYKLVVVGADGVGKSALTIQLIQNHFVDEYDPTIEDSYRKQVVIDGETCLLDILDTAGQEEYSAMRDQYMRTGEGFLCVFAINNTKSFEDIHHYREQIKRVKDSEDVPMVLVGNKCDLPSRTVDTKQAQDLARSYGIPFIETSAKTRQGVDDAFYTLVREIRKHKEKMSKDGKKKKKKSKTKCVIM

SMILES	pIC50 (AsPC-1)	AUC [1] [ng·h/mL]	C0 [1] [ng/mL]	clearance [1] [mL/min/kg]	half-life [1] [h]	pIC50 (KRAS G12D-SOS1)	pIC50 (GP2D)	pIC50 (KRAS WT)
C#Cc1c(F)ccc2cc(O)cc(-c3nc4c5c(nc(OCC6(CN7CCC(=NOC)CC7)CC6)nc5c3F)N3CC5CCC(N5)C3CO4)c12 [Example 21-1, 1-((1-((((5aS,6S,9R)-2-(8-ethynyl-7-fluoro-3-hydroxylnaphthalen-1-yl)-1-fluoro-5a,6,7,8,9,10-hexahydro-5H-4-oxa-3,10a,11,13,14-pentaaza-6,9-methylnaphtho[1,8-ab]hept-12-yl)oxy)methyl)cyclopropyl)methyl)piperidine-4-one-oxo-methyloxime]	8.51	253	939	14.1	9.1	8.72	9.12	7.22
C#Cc1c(F)ccc2cc(O)cc(-c3nc4c5c(nc(OCC6(CN7CCC(=CF)C7)CC6)nc5c3F)N3CC5CCC(N5)C3CO4)c12 (centres unmarked) [Example 15-1]	–	–	–	–	–	8.52	9.12	7.59
C#Cc1c(F)ccc2cc(O)cc(-c3nc4c5c(nc(OCC6(CN7CC8CC(=C(F)F)CC8C7)CC6)nc5c3F)N3CC5CCC(N5)C3CO4)c12 (centres unmarked) [Example 17-1]	–	–	–	–	–	8.59	8.92	7.24
